# Active and inactive are the calls of the source.
# Experiments:
# HEK293 [1] = experiment: cells; type: functional, cell-based; settings: Homo sapiens
# HEK293 [2] = experiment: NOD2 signaling inhibitors in MDP-stimulated cells, cell-based, uHTS, luminescence (AID 2001); type: functional; settings: Homo sapiens
# HEK293 [3] = experiment: NOD1 signaling inhibitors, primary screen, cell-based, luminescence, uHTS (AID 1578); type: functional; settings: Homo sapiens
# HEK293 [4] = experiment: cells; type: functional, cell-based; settings: Homo sapiens; remark: listed apart in the source
# [5] = molecular target: Nucleotide-binding oligomerization domain-containing protein 2 (Homo sapiens, UniProt Q9HC29); experiment: NOD2 signaling inhibitors, cell-based, luminescence, uHTS, HEK293 (AID 1566); type: functional
# Sequence of Nucleotide-binding oligomerization domain-containing protein 2 (Q9HC29 whole entry, the tested form may be a part): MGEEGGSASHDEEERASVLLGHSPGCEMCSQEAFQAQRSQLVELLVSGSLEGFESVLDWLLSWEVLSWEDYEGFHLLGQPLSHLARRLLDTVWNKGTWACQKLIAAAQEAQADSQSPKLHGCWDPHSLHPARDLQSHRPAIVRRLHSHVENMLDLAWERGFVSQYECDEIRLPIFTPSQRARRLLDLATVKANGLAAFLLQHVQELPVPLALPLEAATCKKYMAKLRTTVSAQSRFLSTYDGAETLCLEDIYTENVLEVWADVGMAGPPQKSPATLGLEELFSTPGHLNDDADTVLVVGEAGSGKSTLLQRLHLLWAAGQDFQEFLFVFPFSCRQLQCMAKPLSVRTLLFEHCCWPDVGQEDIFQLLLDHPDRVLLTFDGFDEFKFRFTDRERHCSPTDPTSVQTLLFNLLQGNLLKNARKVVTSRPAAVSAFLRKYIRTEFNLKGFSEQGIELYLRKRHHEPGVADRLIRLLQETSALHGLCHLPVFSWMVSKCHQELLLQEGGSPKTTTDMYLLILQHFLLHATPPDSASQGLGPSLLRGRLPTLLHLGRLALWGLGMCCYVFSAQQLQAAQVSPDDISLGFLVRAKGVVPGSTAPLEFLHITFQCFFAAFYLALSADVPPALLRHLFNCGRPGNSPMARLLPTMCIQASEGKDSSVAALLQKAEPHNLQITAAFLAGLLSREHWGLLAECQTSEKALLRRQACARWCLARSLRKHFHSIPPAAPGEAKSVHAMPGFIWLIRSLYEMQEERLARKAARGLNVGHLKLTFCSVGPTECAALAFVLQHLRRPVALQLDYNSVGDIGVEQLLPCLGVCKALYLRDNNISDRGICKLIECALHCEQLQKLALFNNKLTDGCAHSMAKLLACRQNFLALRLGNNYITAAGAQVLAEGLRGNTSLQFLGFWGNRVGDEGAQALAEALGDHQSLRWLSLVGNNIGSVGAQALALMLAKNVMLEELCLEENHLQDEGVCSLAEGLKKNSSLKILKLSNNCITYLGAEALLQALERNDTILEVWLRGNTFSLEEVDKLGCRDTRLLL
# Melanocortin receptor 4 = Melanocortin receptor 4 (Homo sapiens, UniProt P32245); experiment: MC4R antagonist potency on cAMP, dose response, cell-based, TR-FRET, biased antagonists (AID 602298); type: functional;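 also: antagonist potency against agonist-stimulated cAMP production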
# [6] = Luminescence Cell-Based Dose Retest to Confirm Inhibitors of Cancer Stem Cells. [Related pubchem assays (depositor defined):AID2717, AID2721]; type: functional; settings: Homo sapiens
# [7] = molecular target: Heat shock protein HSP 90-alpha (Homo sapiens, UniProt P07900); type: functional, organism-based
# [8] = nonselective inhibitors of cellular cAMP signaling, dose response, counter-screen for MC4R biased antagonist project, cell-based, TR-FRET cAMP detection (AID 602305); type: functional;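 also: U2OS cells stimulated with forskolin near its EC80 as the cAMP inducer; potency is for inhibition of forskolin-stimulated cAMP signaling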
# [9] = molecular target: T1, Short transient receptor potential channel 4 (Mus musculus, UniProt Q9QUQ5); experiment: TRPC4 positive allosteric modulators, dose response, cell-based, HEK293 TRPC4/mu-opioid, Fluo-4 calcium, EC20 DAMGO (AID 434941); type: functional
# T1 sequence (Q9QUQ5 whole entry): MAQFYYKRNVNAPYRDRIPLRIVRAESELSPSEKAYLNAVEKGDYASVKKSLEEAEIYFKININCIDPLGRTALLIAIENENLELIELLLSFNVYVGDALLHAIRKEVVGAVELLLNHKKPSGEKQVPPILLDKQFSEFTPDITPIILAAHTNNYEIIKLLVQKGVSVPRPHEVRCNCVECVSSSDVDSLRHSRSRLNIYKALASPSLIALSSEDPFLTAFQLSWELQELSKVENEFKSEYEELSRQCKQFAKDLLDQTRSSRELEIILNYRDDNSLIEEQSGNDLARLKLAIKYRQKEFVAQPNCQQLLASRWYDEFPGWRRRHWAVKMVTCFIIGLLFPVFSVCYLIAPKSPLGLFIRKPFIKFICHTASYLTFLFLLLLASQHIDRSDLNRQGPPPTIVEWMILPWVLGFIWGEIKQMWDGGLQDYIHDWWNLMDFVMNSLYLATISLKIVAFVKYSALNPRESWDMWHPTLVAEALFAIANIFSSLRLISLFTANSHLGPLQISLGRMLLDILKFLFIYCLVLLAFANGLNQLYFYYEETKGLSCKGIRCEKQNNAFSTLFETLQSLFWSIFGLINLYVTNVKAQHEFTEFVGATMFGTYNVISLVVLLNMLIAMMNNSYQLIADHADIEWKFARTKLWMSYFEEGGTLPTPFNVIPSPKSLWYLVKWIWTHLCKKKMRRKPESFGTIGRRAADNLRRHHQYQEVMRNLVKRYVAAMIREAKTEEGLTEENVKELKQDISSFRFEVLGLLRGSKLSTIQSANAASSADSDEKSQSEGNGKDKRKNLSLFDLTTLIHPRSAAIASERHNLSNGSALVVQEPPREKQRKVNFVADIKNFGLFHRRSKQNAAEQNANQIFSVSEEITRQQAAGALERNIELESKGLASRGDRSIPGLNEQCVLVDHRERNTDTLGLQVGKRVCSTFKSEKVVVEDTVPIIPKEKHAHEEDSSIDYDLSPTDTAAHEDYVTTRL
# [10] = molecular target: Protein phosphatase methylesterase 1 (Homo sapiens, UniProt Q9Y570); experiment: PME-1 inhibitors by competitive ABPP, late-stage follow-up, gel-based ABPP, IC50, set 1 (AID 463130); type: functional
# Sequence of Protein phosphatase methylesterase 1 (Q9Y570 whole entry): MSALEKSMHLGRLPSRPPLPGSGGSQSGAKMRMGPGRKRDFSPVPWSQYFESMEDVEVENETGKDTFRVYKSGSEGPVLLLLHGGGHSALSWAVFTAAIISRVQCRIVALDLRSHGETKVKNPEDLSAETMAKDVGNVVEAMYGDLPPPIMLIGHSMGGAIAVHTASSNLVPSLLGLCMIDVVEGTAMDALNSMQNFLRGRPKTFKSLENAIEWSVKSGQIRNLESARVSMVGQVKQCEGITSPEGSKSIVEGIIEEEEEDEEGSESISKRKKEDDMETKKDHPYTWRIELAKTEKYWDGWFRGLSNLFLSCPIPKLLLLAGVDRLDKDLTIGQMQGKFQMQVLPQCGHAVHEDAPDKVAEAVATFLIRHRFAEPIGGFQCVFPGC
# X-box-binding protein 1 = X-box-binding protein 1 (Homo sapiens, UniProt P17861); type: functional, Cricetulus griseus;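 also: confirmatory dose-response counter-screen serving a CHOP assay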
# Sequence of X-box-binding protein 1 (P17861 whole entry): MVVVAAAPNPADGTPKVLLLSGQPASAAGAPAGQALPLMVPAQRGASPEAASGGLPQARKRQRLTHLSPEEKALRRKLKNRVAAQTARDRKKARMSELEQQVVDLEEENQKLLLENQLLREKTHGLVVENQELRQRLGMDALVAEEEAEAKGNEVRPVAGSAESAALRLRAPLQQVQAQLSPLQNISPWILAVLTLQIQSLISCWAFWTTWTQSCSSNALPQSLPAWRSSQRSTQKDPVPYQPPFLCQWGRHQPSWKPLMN
# [11] = molecular target: DNA damage-inducible transcript 3 protein (Mus musculus, UniProt P35639); type: functional, Cricetulus griseus
# Sequence of DNA damage-inducible transcript 3 protein (P35639 whole entry): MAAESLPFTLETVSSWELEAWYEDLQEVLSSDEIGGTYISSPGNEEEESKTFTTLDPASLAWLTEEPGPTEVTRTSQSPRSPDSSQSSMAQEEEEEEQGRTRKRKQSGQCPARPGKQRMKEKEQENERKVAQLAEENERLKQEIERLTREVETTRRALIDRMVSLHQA
# Hexokinase = Hexokinase (Trypanosoma brucei, UniProt Q38C41); experiment: Confirmation assay for inhibitors of Trypanosoma brucei hexokinase 1-Analogue-first series. [Related pubchem assays (depositor defined):AID1430, AID1632, AID2516, AID2560, AID2579, AID2600, AID449725, AID492951]; type: functional
# Sequence of Hexokinase (Q38C41 whole entry): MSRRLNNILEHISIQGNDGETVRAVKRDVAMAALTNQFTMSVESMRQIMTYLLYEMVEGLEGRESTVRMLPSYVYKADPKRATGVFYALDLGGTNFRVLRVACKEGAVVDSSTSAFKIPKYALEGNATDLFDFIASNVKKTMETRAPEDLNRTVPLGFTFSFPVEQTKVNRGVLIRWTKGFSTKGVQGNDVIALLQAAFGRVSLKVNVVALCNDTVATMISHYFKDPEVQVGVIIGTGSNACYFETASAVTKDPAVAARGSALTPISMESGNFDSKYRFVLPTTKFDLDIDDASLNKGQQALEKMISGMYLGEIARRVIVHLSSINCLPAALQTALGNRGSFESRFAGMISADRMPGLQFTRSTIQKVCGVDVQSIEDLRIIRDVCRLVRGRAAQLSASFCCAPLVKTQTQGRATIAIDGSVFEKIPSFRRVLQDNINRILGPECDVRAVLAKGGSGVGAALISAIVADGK
# [12] = molecular target: T2, Kappa-type opioid receptor (Homo sapiens, UniProt P41145); experiment: SAR analysis of Antagonists of the Kappa Opioid Receptor (KOR) using an Image-Based Assay - Set 3. [Related pubchem assays (depositor defined):AID1777, AID1785]; type: functional
# T2 sequence (P41145 whole entry): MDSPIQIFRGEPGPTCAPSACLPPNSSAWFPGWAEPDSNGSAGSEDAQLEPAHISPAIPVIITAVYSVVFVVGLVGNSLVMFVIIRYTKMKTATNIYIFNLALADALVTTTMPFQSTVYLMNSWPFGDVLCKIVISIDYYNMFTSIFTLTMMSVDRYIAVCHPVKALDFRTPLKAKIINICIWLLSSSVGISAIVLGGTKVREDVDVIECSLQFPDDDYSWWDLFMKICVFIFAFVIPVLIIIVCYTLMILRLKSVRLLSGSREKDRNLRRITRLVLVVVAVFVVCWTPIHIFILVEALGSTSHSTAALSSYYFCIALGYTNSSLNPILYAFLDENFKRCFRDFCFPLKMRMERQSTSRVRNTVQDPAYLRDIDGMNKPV
# [13] = molecular target: T2, Kappa-type opioid receptor; experiment: SAR analysis of small molecule antagonists of the kappa opioid receptor via a luminescent beta-arrestin assay - Set 3. [Related pubchem assays (depositor defined):AID1777, AID1778, AID1785, AID1786, AID1966, AID2133, AID2136, AID2285, AID2495]; type: functional
# Mu-type opioid receptor = Mu-type opioid receptor (Homo sapiens, UniProt P35372); experiment: SAR Analysis of Antagonists of the MOR Receptor using an Image-Based Assay - Set 3. [Related pubchem assays (depositor defined):AID1777, AID1785, AID1786, AID1966, AID2133, AID2136, AID2284, AID2285, AID2420]; type: functional
# Sequence of Mu-type opioid receptor (P35372 whole entry): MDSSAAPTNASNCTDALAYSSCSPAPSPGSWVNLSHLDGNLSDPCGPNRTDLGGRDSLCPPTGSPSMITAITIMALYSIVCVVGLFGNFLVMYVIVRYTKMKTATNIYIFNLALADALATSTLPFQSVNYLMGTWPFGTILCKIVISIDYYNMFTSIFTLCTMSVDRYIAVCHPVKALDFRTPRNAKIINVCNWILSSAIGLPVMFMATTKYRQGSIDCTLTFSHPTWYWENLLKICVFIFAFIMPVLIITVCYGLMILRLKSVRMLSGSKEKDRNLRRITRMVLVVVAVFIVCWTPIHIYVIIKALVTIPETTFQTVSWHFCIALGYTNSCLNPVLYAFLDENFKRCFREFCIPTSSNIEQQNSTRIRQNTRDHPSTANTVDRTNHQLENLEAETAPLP
# [14] = molecular target: Delta-type opioid receptor (Homo sapiens, UniProt P41143); experiment: SAR Analysis of Antagonists of the DOR Receptor using an Image-Based Assay - Set 3. [Related pubchem assays (depositor defined):AID1777, AID1785]; type: functional;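 also: U2OS cells expressing DOR1 and beta-arrestin GFP stimulated with 100 nM SNC80; imaging of GFP-tagged beta-arrestin moving into spots after receptor activation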
# Sequence of Delta-type opioid receptor (P41143 whole entry): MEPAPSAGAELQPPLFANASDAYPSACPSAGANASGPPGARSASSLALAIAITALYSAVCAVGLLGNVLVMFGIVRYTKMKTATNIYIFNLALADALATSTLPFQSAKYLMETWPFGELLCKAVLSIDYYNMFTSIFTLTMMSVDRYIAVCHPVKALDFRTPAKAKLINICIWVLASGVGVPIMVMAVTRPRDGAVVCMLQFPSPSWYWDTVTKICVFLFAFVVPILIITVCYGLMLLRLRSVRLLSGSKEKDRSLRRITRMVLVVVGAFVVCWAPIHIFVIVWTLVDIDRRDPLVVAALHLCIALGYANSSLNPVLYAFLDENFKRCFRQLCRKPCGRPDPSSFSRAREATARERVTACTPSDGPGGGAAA
# Coagulation factor XII = molecular target: T3, Coagulation factor XII (Homo sapiens, UniProt P00748); experiment: FXIIa inhibitor potency, concentration-response, biochemical (AID 716); type: functional
# T3 sequence (P00748 whole entry): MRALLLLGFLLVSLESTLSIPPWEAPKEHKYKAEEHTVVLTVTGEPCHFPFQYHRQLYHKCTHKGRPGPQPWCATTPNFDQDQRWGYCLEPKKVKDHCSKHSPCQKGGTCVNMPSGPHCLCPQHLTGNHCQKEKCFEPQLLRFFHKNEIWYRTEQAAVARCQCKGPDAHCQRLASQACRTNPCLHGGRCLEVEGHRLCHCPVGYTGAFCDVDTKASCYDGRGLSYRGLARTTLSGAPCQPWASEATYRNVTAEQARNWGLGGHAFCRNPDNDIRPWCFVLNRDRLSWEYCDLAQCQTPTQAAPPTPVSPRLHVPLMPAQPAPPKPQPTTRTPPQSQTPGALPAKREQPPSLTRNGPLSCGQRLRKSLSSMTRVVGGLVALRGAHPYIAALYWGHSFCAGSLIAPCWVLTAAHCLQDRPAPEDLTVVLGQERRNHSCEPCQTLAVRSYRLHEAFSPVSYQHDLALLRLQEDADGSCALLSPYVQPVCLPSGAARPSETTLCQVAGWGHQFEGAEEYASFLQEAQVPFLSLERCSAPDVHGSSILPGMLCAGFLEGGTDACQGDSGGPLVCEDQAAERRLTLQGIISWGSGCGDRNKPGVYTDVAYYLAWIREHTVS
# [15] = molecular target: T2, Kappa-type opioid receptor; experiment: SAR analysis of small molecule antagonists of the kappa opioid receptor via a luminescent beta-arrestin assay - Set 4. [Related pubchem assays (depositor defined):AID1777, AID1778, AID1785, AID1786, AID1966, AID2133, AID2136, AID2285]; type: functional
# [16] = molecular target: T2, Kappa-type opioid receptor; experiment: SAR analysis of Antagonists of the Kappa Opioid Receptor (KOR) using an Image-Based Assay - Set 4. [Related pubchem assays (depositor defined):AID1777, AID1785]; type: functional
# [17] = molecular target: T2, Kappa-type opioid receptor; experiment: SAR analysis of small molecule antagonists of the kappa opioid receptor via a luminescent beta-arrestin assay - Set 6. [Related pubchem assays (depositor defined):AID1777, AID1778, AID1785, AID1786, AID1966, AID2133, AID2136, AID2285]; type: functional
# [18] = molecular target: T4, G-protein coupled receptor 35 (Homo sapiens, UniProt Q9HC97); experiment: SAR analysis of Antagonists of the GPR35 Receptor using an Image-Based Assay - Set 4. [Related pubchem assays (depositor defined):[…]]; type: functional
# T4 sequence (Q9HC97 whole entry): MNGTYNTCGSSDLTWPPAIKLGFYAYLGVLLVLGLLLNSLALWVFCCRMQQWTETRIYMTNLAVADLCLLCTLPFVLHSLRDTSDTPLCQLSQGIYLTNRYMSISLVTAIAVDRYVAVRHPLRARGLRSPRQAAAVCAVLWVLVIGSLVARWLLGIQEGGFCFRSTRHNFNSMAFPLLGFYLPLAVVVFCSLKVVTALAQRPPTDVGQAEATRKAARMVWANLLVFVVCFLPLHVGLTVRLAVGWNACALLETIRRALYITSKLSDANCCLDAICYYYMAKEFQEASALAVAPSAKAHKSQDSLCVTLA
# [19] = molecular target: T4, G-protein coupled receptor 35; experiment: SAR analysis of Agonists of the GPR35 Receptor using an Image-Based Assay - Set 3. [Related pubchem assays (depositor defined):AID1961, AID1965]; type: functional
# [20] = molecular target: G-protein coupled receptor 55 (Homo sapiens, UniProt Q9Y2T6); experiment: SAR analysis of selective Agonists of GPR55 using an Image-Based Assay - Set 2. [Related pubchem assays (depositor defined):AID1961, AID1965]; type: functional
# Sequence of G-protein coupled receptor 55 (Q9Y2T6 whole entry): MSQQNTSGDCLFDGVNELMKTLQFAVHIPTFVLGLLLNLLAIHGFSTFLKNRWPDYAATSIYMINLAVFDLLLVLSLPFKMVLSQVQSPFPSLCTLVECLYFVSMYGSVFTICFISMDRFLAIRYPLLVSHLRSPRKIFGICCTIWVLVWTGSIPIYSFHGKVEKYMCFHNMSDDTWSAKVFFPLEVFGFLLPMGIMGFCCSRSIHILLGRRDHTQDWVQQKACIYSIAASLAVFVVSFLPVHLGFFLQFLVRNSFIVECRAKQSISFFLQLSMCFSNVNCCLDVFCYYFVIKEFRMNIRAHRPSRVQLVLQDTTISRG
# Cannabinoid receptor 2 [21] = molecular target: T5, Cannabinoid receptor 2 (Homo sapiens, UniProt P34972); experiment: SAR analysis of agonists of the Cannabinoid Receptor 2 using an Image-Based Assay - Set 2. [Related pubchem assays (depositor defined):AID1961, AID1965]; type: functional
# T5 sequence (P34972 whole entry): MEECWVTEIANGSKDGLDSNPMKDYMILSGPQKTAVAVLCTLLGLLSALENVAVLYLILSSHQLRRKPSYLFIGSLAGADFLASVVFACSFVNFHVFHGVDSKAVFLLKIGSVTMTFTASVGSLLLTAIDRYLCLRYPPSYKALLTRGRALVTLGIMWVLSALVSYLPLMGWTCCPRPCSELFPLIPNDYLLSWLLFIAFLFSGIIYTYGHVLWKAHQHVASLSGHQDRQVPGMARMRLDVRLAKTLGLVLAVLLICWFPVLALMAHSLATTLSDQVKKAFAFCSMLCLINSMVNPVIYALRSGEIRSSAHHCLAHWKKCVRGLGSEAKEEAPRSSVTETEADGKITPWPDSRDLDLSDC
# Cannabinoid receptor 1 [22] = molecular target: T6, Cannabinoid receptor 1 (Homo sapiens, UniProt P21554); experiment: SAR analysis of agonists of the Cannabinoid Receptor 1 using an Image-Based Assay - Set 3. [Related pubchem assays (depositor defined):AID1961, AID1965]; type: functional
# T6 sequence (P21554 whole entry): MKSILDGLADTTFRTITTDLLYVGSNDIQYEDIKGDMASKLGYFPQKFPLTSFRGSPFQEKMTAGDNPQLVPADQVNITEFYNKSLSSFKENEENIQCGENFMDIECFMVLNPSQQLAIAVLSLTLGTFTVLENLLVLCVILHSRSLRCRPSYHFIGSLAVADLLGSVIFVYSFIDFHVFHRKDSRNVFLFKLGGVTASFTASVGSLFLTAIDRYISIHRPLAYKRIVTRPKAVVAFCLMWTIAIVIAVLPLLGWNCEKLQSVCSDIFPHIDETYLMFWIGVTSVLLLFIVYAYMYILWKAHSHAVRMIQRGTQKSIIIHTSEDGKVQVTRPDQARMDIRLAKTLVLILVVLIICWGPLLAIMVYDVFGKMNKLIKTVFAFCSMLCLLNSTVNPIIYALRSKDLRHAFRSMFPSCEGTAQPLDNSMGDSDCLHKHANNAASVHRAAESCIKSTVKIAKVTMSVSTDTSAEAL
# Cannabinoid receptor 1 [23] = molecular target: T6, Cannabinoid receptor 1; experiment: SAR analysis of antagonists of the Cannabinoid Receptor 1 using an Image-Based Assay - Set 3. [Related pubchem assays (depositor defined):AID1961, AID1965]; type: functional
# Cannabinoid receptor 2 [24] = molecular target: T5, Cannabinoid receptor 2; experiment: SAR analysis of antagonists of the Cannabinoid Receptor 2 using an Image-Based Assay - Set 2. [Related pubchem assays (depositor defined):AID1961, AID1965]; type: functional
# Ion channel NompC = Ion channel NompC (Danio rerio, UniProt Q7T1G6); experiment: Dose response cell-based high-throughput screening assay for agonists of the transient receptor potential channel N1 (TRPN1). [Related pubchem assays (depositor defined):AID1424, AID1448]; type: functional
# Mucolipin-3 = molecular target: T7, Mucolipin-3 (Homo sapiens, UniProt Q8TDD5); experiment: Fluorescence counterscreen assay for […] agonists: dose response cell-based high-throughput screening assay to identify agonists of the transient receptor potential channel ML3 (TRPML3). [Related pubchem assays: 1424, 1448 ]; type: functional
# T7 sequence (Q8TDD5 whole entry): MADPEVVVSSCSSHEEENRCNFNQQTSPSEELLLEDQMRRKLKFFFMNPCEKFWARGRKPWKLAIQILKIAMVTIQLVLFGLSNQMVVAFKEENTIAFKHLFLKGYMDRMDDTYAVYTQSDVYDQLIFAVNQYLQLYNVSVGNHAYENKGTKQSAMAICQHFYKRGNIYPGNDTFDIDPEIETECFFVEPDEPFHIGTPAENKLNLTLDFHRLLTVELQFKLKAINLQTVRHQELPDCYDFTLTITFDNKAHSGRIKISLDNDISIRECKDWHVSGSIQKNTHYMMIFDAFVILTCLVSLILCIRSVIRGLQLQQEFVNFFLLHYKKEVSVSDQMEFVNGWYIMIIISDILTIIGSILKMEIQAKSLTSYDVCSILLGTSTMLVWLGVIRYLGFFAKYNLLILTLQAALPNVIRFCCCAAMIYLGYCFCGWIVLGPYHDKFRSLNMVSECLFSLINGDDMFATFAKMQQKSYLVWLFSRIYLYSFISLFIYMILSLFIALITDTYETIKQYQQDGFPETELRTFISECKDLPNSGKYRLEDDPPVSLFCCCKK
smiles,measurement,setting,value
Cc1c(/C=N/NC(=O)c2ccccc2O)c2ccccn2c1C(=O)c1ccc(F)cc1,IC50,HEK293 [1],10.9 µM (active)
same,IC50,HEK293 [2],6.49 µM (active)
same,EC50,HEK293 [3],10.3 µM (active)
same,IC50,HEK293 [4],11.5 µM (active)
same,EC50,[5],6.46 µM (active)
CC1CCN(c2nc(Cl)nc(Nc3ccc([N+](=O)[O-])cc3)n2)CC1,IC50,Melanocortin receptor 4,> 64.5 µM (inactive)
same,AC50,[6],2.99 µM (active)
same,AC50,[7],17.6 µM (active)
same,IC50,[8],> 64.5 µM (inactive)
same,EC50,[9],3.35 µM (active)
COC(=O)N1C(=O)[C@](c2ccsc2)(C(C)C)N1C(=O)OC,IC50,[10],10.7 µM (inactive)
O=C(Nc1ccccc1O)c1c(O)nc2c(c1O)CCCC2,Absolute IC50 (XBP1),X-box-binding protein 1,10 µM
same,Absolute IC50 (CHOP),[11],10 µM
CCOC(=O)c1ccncc1NC(=O)c1ccc(OC)cc1,IC50,Hexokinase,> 25 µM (inactive)
Cc1ccc(Cl)cc1N1CCN(CCNC(=O)Cn2c(=O)c3cccn3c3cccnc32)CC1,IC50,[12],> 32 µM (inactive)
same,IC50,[13],> 20 µM (inactive)
same,IC50,Mu-type opioid receptor,3.98 µM (active)
same,IC50,[14],> 32 µM (inactive)
COC(=O)c1ccccc1NC(=O)N1CCN(C(=O)c2ccco2)CC1,IC50,Coagulation factor XII,> 50 µM (inactive)
Cc1ccc(S(=O)(=O)NCc2ccc(C(=O)NCCN(Cc3ccccc3)C3CCCC3)cc2)cc1,IC50,[15],0.558 µM (active)
same,IC50,[16],0.137 µM (active)
same,IC50,Mu-type opioid receptor,3.31 µM (active)
same,IC50,[17],0.71 µM (active)
same,IC50,[14],> 32 µM (inactive)
CCN(CC)S(=O)(=O)c1ccc(N2CCCCC2)c(C(=O)N2CCN(c3ccccc3)CC2)c1,IC50,[18],> 32 µM (inactive)
same,EC50,[19],> 32 µM (inactive)
same,EC50,[20],> 32 µM (inactive)
same,EC50,Cannabinoid receptor 2 [21],> 32 µM (inactive)
same,EC50,Cannabinoid receptor 1 [22],> 32 µM (inactive)
same,IC50,Cannabinoid receptor 1 [23],9.36 µM (active)
same,IC50,Cannabinoid receptor 2 [24],> 32 µM (inactive)
O=C(Nc1ccccc1)Nc1ccc2snnc2c1,EC50,Ion channel NompC,> 29.9 µM (inactive)
same,EC50,Mucolipin-3,> 29.9 µM (not active)

# Source: ChEMBL document CHEMBL1201862, “PubChem BioAssay data set” (2004)
